Patent US9428726B2, “Modified host cells with efflux pumps” (priority 2010, dated 2016)

B1: YP_957870: Marinobacter aqueolei efflux pump, accession of inner membrane protein, SEQ ID NO:1 (protein, listed as Marinobacter aqueolei)
chain: MINFFISRPVFSWVLAIVAMLAGIMAIFVLPVQRYPSVAPPAVEIQADYPGASADTVSNTVVQVIEQEMTGLDNLLYMGSTADSSGHATVTLTFAAGTDPDIAQVQVQNKLKLAEPRLPEVVRQQGISVEKSSTSFLMVMAFVSTDGRLSKLDIADFISSELAEPIGRVTGIGSVQVFGSEYAMRIWLDPSALTNYGLTVADVSAAIEAQNAQVTAGQLGGLPAVEGQQLNATVTAQTLLTSTEEFRNILLKSMPDGSRVRLGDVARVELGGGAVQIDTFYDGEPAAGLGINLAPGANSLAVTEAVKARLQELEPYFPEGVEIRYPYQTAPFVEASIDAVVTTIIEAIALVVLVMLVFLQSWRATLIPAIAIPVVLLGTFAIMAAFGFSINMLTLFGLVLAIGLLVDDAIVVVENVERVMHEDGLSPMEATRKSMGQIASALIGIGVVLSAVFIPMAFFPGSTGAIYRQFSLSIAGAMVLSVLVALILSPMLCGRILKPTHERTLLQKLFGWFEAGLGRLTRGYVRLVGHTARHAWLYTLAFLGIVGLVAVLFVRLPGGFLPAEDQGFAVVQYQLPAGATQQRTIDTIQVIEDYFMDQDEVQGLFTIAGFSFAGRAQNAGLAFVNLKPWSERDPETQSADAIIQRANRALAGLVRDGRAFAFNLPPIPELGQALGFELRLQDRGAIGHEALMAAQGQLLQLAAESPVLTSVRPNGLADNPRYKVDIDYEKAQALGIEPSEISRLLSVTWGSQYVNDFLHEGRVKRVYVQGDAPFRMLPEDFEAWYLRAANGEMTPLSEVTNGRWEYGSPRLERFNGVPSRQIQGEPAPGYSTGEAMAEVERLIAQLPDGVAGAWSGLSYQERQAGAQASLLYALSALVVFLALAALYESWTIPISVMLAVPLGVLGAVLAAMVRGLPNDVFFQVGILTTVGVTARNAILLVEFARSLEDQGMKLIEATKEAARVRLRPILMTSVAFGMGVLPLAFASGAGATTRIAIGTAVLGGMISATILATFFIPLFYVVVRRITDFLSGSRDQDDSAAAAPGRANGGVADDR

Test system: E. coli DH1 ΔacrAB
Details: for biofuel level that inhibited growth: added to pooled culture in M9 minimal medium, aimed at an inhibitory concentration that reduced growth by 25%
Description: In order to screen the efflux pump library against a variety of biofuels we devised a competition-based strategy to select for pumps that improved biofuel tolerance (FIG. 1A). Cells containing plasmids with individual pumps were grown separately and then pooled so that all individual strains were represented equally. This pooled culture was then grown both with and without biofuel, and maintained through serial dilutions every 10-14 hours over a total of 96 hours. At each dilution time point, plasmids from each culture were isolated and a custom microarray was used to quantify the amount of each efflux pump plasmid present in the culture (Methods).
Pooled culture glycerol stocks were used to inoculate M9 minimal medium with 30 μg/ml kanamycin and 10 μM IPTG. The culture was then divided into tubes to a final volume of 5 ml and biofuel was added directly to the tubes. All conditions were prepared in triplicate. Cultures were grown at 37° C. with orbital shaking at 200 rpm for all experiments.
Every 10-14 hours the cultures were diluted 1:100 into 5 ml of fresh M9 minimal medium with kanamycin, IPTG, and biofuel (where applicable). For the time-course assay, cultures were spun down at the completion of a growth cycle and plasmids were isolated. For end point competition assays, plasmid was isolated from the culture after 72 hours of serial dilution.
Custom microarrays (NimbleGen, Roche, USA) were used to measure the relative quantities of the efflux pumps present in the plasmid DNA isolated from the competition cultures. Arrays were designed so that they contained probes for all HAE1 annotated efflux pumps from all sequenced bacterial genomes. 12×135K arrays were used to allow for 12 experiments per slide.
Plasmid DNA was labeled and hybridized following the protocol for NimbleGen Comparative Genomic Hybridization Microarrays with minor modifications (Supporting Methods). Data were normalized using the standard settings for RMA analysis in the NimbleScan software. Probe values were averaged using a custom Matlab script (Mathworks, Inc.). […] For the positive hybridization control, all library plasmids were prepared individually and combined in vitro in equal proportions. For the negative hybridization control, a plasmid with the same vector backbone as those in the library, but no efflux pump, was isolated from DH1 ΔacrAB. Both hybridization controls were labeled and hybridized to the array using the methods described above.
This required the use of a co-solvent in order to accurately pipette small volumes. In both cases dimethylformamide (DMF) was used as the co-solvent. […] Other biofuels were added directly without the use of a co-solvent.

Molecule | biofuel level that inhibited growth [% v/v] | also measured
CN(C)C=O [DMF, dimethylformamide] |  | toxicity limit to E. coli (co-solvent amount present in the culture): > 0.2%
CCCCCC(=O)OCC=C(C)CCC=C(C)CCC=C(C)C [farnesyl hexanoate] | 2.5 | 
C=C(C)[C@H]1CC=C(C)CC1 [limonene] | 0.025 | 
CC1=CCC2CC1C2(C)C (stereo not drawn) [α-pinene] | 2 | 
B1 |  | outcome of efflux pump in competition (2% geranyl acetate, serial dilution competition): increase survival
